# Assay results: patent US11098043B2, “Certain imidazopyridines as cyclic AMP response element binding (CREB) binding protein (CBP) inhibitors and uses thereof” (University of Massachusetts, priority 2017, dated 2021)
# Key:
# [1] = target: T1, CBP bromodomain (Homo sapiens, UniProt Q92793); assay: AlphaScreen in vitro binding assay with CBP; conditions: for IC50: AlphaScreen, isolated CBP bromodomain, means of at least two determinations; for Selectivity Value [BRD4(1) IC50 (μM)/CBP IC50 (μM)]: ratio BRD4(1) IC50 / CBP IC50
# T1 construct: docked complex of Compound 21 with CBP bromodomain
# T1 sequence (Q92793 1085-1192 limits assumed): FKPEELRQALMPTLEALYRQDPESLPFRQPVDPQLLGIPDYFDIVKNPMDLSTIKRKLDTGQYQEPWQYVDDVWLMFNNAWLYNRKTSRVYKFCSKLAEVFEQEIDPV
# Procedure: (§1) To determine the binding selectivity of compounds provided, AlphaScreen in vitro binding assays were performed with either CBP or BRD4.
# (§2) Assays were performed with minor modifications from the manufacturer's protocol (Perkin Elmer, USA). All reagents were diluted in AlphaScreen™ buffer (50 mM HEPES, 150 mM NaCl, 0.01% v/v Tween-20, 0.1% w/v BSA, pH 7.4). After addition of Alpha beads to master solutions, all subsequent steps were performed under low light conditions. A 2× solution of components with final concentrations of His-BRD4(1) at 20 nM or His-CBP at 50 nM, Ni-coated Acceptor bead at 10 μg/ml, and biotinylated-JQ1 at 10 nM or biotinylated peptide at 100 nM was added in 10 μL to 384-well plates (AlphaPlate-384, PerkinElmer) using an EL406 liquid handler (Biotek, USA). Plates were spun down at 1000 rpm. A 10-point 1: √{square root over (sqrt(10))} serial dilution of compounds in DMSO was prepared at 200× the final concentration. 100 nL of compound from these stock plates were added by pin transfer using a Janus Workstation (PerkinElmer). A 2× solution of streptavidin-coated donor beads with a final concentration of 10 μg/ml was added in a 10 μL volume. The plates were spun down again at 1000 rpm and sealed with foil to prevent light exposure and evaporation. The plates were then incubated at room temperature for 1 hour and read on an Envision 2104 (PerkinElmer) using the manufacturer's protocol. IC50 values were calculated using a 4-parameter logistic curve in Prism 6 (GraphPad Software, USA) after normalization to DMSO-treated negative control wells.
# [2] = target: T2, BRD4(1) bromodomain (Homo sapiens, UniProt O60885); assay: AlphaScreen in vitro binding assay with BRD4; conditions: isolated BRD4 bromodomain, means of at least two determinations
# T2 construct: final concentrations of His-BRD4(1) at 20 nM
# Procedure: as §1
# as §2, with “A 2× solution of components with final concentrations of His-BRD4(1) at 20 nM or His-CBP at 50 nM, Ni-coated Acceptor bead at 10 μg/ml, and biotinylated-JQ1 at 10 nM or biotinylated peptide at 100 nM was added in 10 μL to 384-well plates (AlphaPlate-384, PerkinElmer) using an EL406 liquid handler (Biotek, USA).” left out
SMILES,IC50 [1] [µM],Selectivity Value [BRD4(1) IC50 (μM)/CBP IC50 (μM)] [1],IC50 [2] [µM]
"COc1ccc(-c2nc3cc(C)cc(C)n3c2NC23CC4CC(CC(C4)C2)C3)cc1 [Compound 1, N-((3s,5s,7s)-adamantan-1-yl)-2-(4-methoxyphenyl)-5,7-dimethylimidazo[1,2-a]pyridin-3-amine]",16.1,>3,
COc1ccc(-c2nc3cc(-c4c(C)noc4C)ccn3c2NC23CC4CC(CC(C4)C2)C3)cc1 [Compound 2],2.22,>23,
COc1ccc(-c2nc3cc(-c4c(C)noc4C)ccn3c2NC2CCCCC2)cc1 [Compound 3],14.2,>4,
Cc1noc(C)c1-c1ccn2c(NCC(=O)OC(C)(C)C)c(CCc3ccccc3)nc2c1 [Compound 4],7.83,>6,
"Cc1noc(C)c1-c1ccn2c(NC3CCCCC3)c(CCc3ccccc3)nc2c1 [Compound 5, N-cyclohexyl-7-(3,5-dimethylisoxazol-4-yl)-2-phenethylimidazo[1,2-a]pyridin-3-amine]",0.718,10,7.43
Cc1noc(C)c1-c1ccn2c(NC34CC5CC(CC(C5)C3)C4)c(CCc3ccccc3)nc2c1 [Compound 6],0.507,7,3.38
COc1ccc(-c2nc3cc(-c4c(C)noc4C)ccn3c2NCC(=O)OC(C)(C)C)cc1 [Compound 7],1.17,3,2.96
"COc1ccc(-c2nc3cc(C)cc(C)n3c2NC(C)(C)CC(C)(C)C)cc1 [Compound 8, 2-(4-methoxyphenyl)-5,7-dimethyl-N-(2,4,4-trimethylpentan-2-yl)imidazo[1,2-a]pyridin-3-amine]",16.3,>3,
CN1Cc2cc(-c3ccn4c(NC5CCCCC5)c(CCc5ccccc5)nc4c3)ccc2NC1=O [Compound 10],8.12,<1,7.55
Cc1[nH]nc2ccc(-c3ccn4c(NC5CCCCC5)c(CCc5ccccc5)nc4c3)cc12 [Compound 11],8.02,<1,0.51
Cc1noc2ccc(-c3ccn4c(NC5CCCCC5)c(CCc5ccccc5)nc4c3)cc12 [Compound 12],> 50,<1,3.03
"Cc1noc(C)c1-c1ccn2c(NC(C)(C)CC(C)(C)C)c(CCc3ccccc3)nc2c1 [Compound 13, 7-(3,5-dimethylisoxazol-4-yl)-2-phenethyl-N-(2,4,4-trimethylpentan-2-yl)imidazo[1,2-a]pyridin-3-amine]",1.88,1,2.77
"Cc1noc(C)c1-c1ccn2c(NC(C)(C)C)c(CCc3ccccc3)nc2c1 [Compound 14, N-(tert-butyl)-7-(3,5-dimethylisoxazol-4-yl)-2-phenethylimidazo[1,2-a]pyridin-3-amine]",0.956,6,5.64
COc1ccc(CCc2nc3cc(-c4c(C)noc4C)ccn3c2NCC(=O)OC(C)(C)C)cc1 [Compound 15],1.55,3,4.22
"COc1ccc(CCc2nc3cc(-c4c(C)noc4C)ccn3c2NC23CC4CC(CC(C4)C2)C3)cc1 [Compound 16, N-((3s,5s,7s)-adamantan-1-yl)-7-(3,5-dimethylisoxazol-4-yl)-2-(4-methoxyphenethyl)imidazo[1,2-a]pyridine-3-amine]",0.923,8,7.11
COc1ccc(CCc2nc3cc(-c4c(C)noc4C)ccn3c2NCCN2CCOCC2)cc1 [Compound 17],0.464,7,3.42
"COc1ccc(CCc2nc3cc(-c4c(C)noc4C)ccn3c2NC2CCCCC2)cc1 [Compound 18, N-cyclohexyl-7-(3,5-dimethylisoxazol-4-yl)-2-(4-methoxyphenethyl)imidazo[1,2-a]pyridin-3-amine]",0.159,41,6.59

SMILES,IC50 [1] [µM],Selectivity Value [BRD4(1) IC50 (μM)/CBP IC50 (μM)] [1],IC50 [2] [µM]
"COc1ccc(CCc2nc3cc(-c4c(C)noc4C)ccn3c2NC(C)C)cc1 [Compound 19, 7-(3,5-dimethylisoxazol-4-yl)-N-isopropyl-2-(4-methoxyphenethyl)imidazo[1,2-a]pyridin-3-amine]",0.296,34,10.1
COc1ccc(CCc2nc3cc(-c4c(C)noc4C)ccn3c2NC(C)(C)C)cc1 [Compound 20],2.34,>21,
"COc1ccc(CCc2nc3cc(-c4c(C)noc4C)ccn3c2NC2CCCCC2)cc1Cl [Compound 21, 2-(3-chloro-4-methoxyphenethyl)-N-cyclohexyl-7-(3,5-dimethylisoxazol-4-yl)imidazo[1,2-a]pyridin-3-amine]",,,5.19
"CCOc1ccc(CCc2nc3cc(-c4c(C)noc4C)ccn3c2NC2CCCCC2)cc1 [Compound 22, N-cyclohexyl-7-(3,5-dimethylisoxazol-4-yl)-2-(4-ethoxyphenethyl)imidazo[1,2-a]pyridin-3-amine]",0.214,30,6.48
CCCOc1ccc(CCc2nc3cc(-c4c(C)noc4C)ccn3c2NC2CCCCC2)cc1 [Compound 23],0.633,28,17.9
COc1ccc(CCc2nc3cc(-c4c(C)noc4C)ccn3c2NCc2ccccc2)cc1 [Compound 24],1.92,4,8.47
COc1ccc(CCc2nc3cc(-c4c(C)noc4C)ccn3c2Nc2ccc(Cl)cc2)cc1 [Compound 25],1.61,5,7.95
COc1ccc(Cc2nc3cc(-c4c(C)noc4C)ccn3c2NC2CCCCC2)cc1 [Compound 26],6.07,2,11.2
"COc1ccc(CCCc2nc3cc(-c4c(C)noc4C)ccn3c2NC2CCCCC2)cc1 [Compound 27, N-cyclohexyl-7-(3,5-dimethylisoxazol-4-yl)-2-(3-(4-methoxyphenyl)propyl)imidazo[1,2-a]pyridin-3-amine]",4.95,3,12.3
"COc1ccc(CCc2nc3cc(-c4c(C)noc4C)ccn3c2NC(C)(C)CC(C)(C)C)cc1 [Compound 28, 7-(3,5-dimethylisoxazol-4-yl)-2-(4-methoxyphenethyl)-N-(2,4,4-trimethylpentan-2-yl)imidazo[1,2-a]pyridin-3-amine]",20.9,>2,
"CCOc1ccc(CCc2nc3cc(-c4c(C)noc4C)ccn3c2NC(C)(C)CC(C)(C)C)cc1 [Compound 29, 7-(3,5-dimethylisoxazol-4-yl)-2-(4-ethoxyphenethyl)-N-(2,4,4-trimethylpentan-2-yl)imidazo[1,2-a]pyridin-3-amine]",38.5,>1,> 50
Cc1noc(C)c1-c1ccn2c(NC(C)(C)CC(C)(C)C)c(CCc3ccc(OC(C)C)cc3)nc2c1 [Compound 30],,1,
CCOc1ccc(CCc2nc3cc(-c4c(C)noc4C)ccn3c2NC2CCCCC2)cc1Cl [Compound 31],2.54,20,
CCOc1ccc(CCc2nc3cc(-c4c(C)noc4C)ccn3c2NC(C)(C)CC(C)(C)C)cc1Cl [Compound 32],20.5,>2,
COc1ccc(CCCc2nc3cc(-c4c(C)noc4C)ccn3c2NC(C)(C)CC(C)(C)C)cc1 [Compound 35],,1,
"Cc1sc2c(c1C)C(c1ccc(Cl)cc1)=N[C@@H](CC(=O)OC(C)(C)C)c1nnc(C)n1-2 [JQ1, reference compound]",> 50,,
